Experimental data: US20050239754A1 (priority 2003, published 2005)

Test: Pseudo-titration in water with IRA-400(OH) anion exchange resin, samples assayed by HPLC
Assay type: physicochemical
Experimental: 60 g of Amberlite IRA400 (OH) resin was prewashed with 4.7 percent (by weight) ammonium hydroxide (50 ml of 28 percent ammonium hydroxide, 250 ml deionized water), followed by extensive washing with deionized water. The final conductivity was 6.1 μS.
Samples containing about 0.9 g of S-[2-[(1-Iminoethyl)amino]ethyl]-2-methyl-L-cysteine di-hydrochloride in 142 ml HCl/water solution, were concentrated on a rotary evaporator at 60° C. to an oil. To the oil, diluted to 60 ml with deionized water, was added aliquots of 0.5 g of washed anion exchange resin while stirring. At five minutes after each aliquot of resin was added, the solution pH was measured and a sample removed through a syringe filter. A total of 9 g of anion exchange resin was added. The final pH was 10.8. The resin was removed by filtration and the filtrate was concentrated to an oil by rotary evaporation at 60° C.; no solids formed. The starting material, final filtrate and all intermediate samples were assayed by HPLC and ion chromatography for chloride.
The diamond (solid line) is pH and square (dashed line) is S-[2-[(1-Iminoethyl)amino]ethyl]-2-methyl-L-cysteine (percent initial, by ion chromatography). […] The diamond (solid line) is pH and triangle (broken line) is chloride (by ion chromatography).
These curves are not true titration curves since samples were withdrawn during the progress of the reaction, and since true equilibrium was not attained before the increments of resin were added. Nevertheless, the graphs of FIG. 2 and FIG. 3 illustrate the expected trends. As resin is added to the S-[2-[(1-Iminoethyl)amino]ethyl]-2-methyl-L-cysteine solution the pH rises with change in slope around pH's of 2, 9 and 11. The pH's of slower rise are representative of the pK's of the carboxylic acid, amine and amidine functional groups, respectively. Above a pH of 10, the S-[2-[(1-Iminoethyl)amino]ethyl]-2-methyl-L-cysteine concentration in solution decreases. At this point, the S-[2-[(1-Iminoethyl)amino]ethyl]-2 methyl-L-cysteine is gaining a net negative charge and is binding to the resin. […] The final chloride content is approximately 0.04 mol equivalents.

[1] = pseudo-titration with anion exchange resin in water, not true titration curves

SMILES: CC(=N)NCCSC[C@](C)(N)C(=O)O [S-[2-[(1-Iminoethyl)amino]ethyl]-2-methyl-L-cysteine]
- pH of slower rise representative of the pK of the amidine [1]: ~11
- pH of slower rise representative of the pK of the amine [1]: ~9
- pH of slower rise representative of the pK of the carboxylic acid [1]: ~2
- Degradation by HPLC assay of the titration samples (samples up to final pH 10.8): no degradation
